Numbers after ± are expanded uncertainties.
Assays:
[1] = 101.3 kPa, Liquid, Oscillating disk viscometry
[2] = refractive index (Na D-line) (dimensionless); details: 101.3 kPa, Liquid, Standard Abbe refractometry

| viscosity ([1]; 293.15 K) [mPa·s] | viscosity ([1]; 298.15 K) [mPa·s] | viscosity ([1]; 303.15 K) [mPa·s] | viscosity ([1]; 308.15 K) [mPa·s] | viscosity ([1]; 313.15 K) [mPa·s] | viscosity ([1]; 318.15 K) [mPa·s] | viscosity ([1]; 323.15 K) [mPa·s] | viscosity ([1]; 328.15 K) [mPa·s] | viscosity ([1]; 333.15 K) [mPa·s] | refractive index ([2]; 293.15 K) | refractive index ([2]; 298.15 K) | refractive index ([2]; 303.15 K) | refractive index ([2]; 308.15 K) | refractive index ([2]; 313.15 K) | refractive index ([2]; 318.15 K) | refractive index ([2]; 323.15 K) | refractive index ([2]; 328.15 K) | refractive index ([2]; 333.15 K) | Compound |
| --- | --- | --- | --- | --- | --- | --- | --- | --- | --- | --- | --- | --- | --- | --- | --- | --- | --- | --- |
| 13.12 ± 2.9 | 10.28 ± 2.3 | 8.42 ± 1.8 | 6.78 ± 1.5 | 5.54 ± 1.2 | 4.61 ± 0.99 | 3.82 ± 0.82 | 3.13 ± 0.69 | 2.42 ± 0.56 | 1.4386 ± 0.0022 | 1.437 ± 0.0022 | 1.4352 ± 0.0022 | 1.4331 ± 0.0022 | 1.431 ± 0.0022 | 1.4288 ± 0.0022 | 1.4265 ± 0.0023 | 1.4242 ± 0.0023 | 1.4218 ± 0.0023 | CNCCO [2-(methylamino)ethanol] |
| 153.62 ± 41 | 99.27 ± 27 | 71.31 ± 17 | 52.94 ± 13 | 37.67 ± 9.1 | 28.23 ± 6.5 | 21.55 ± 4.9 | 16.43 ± 3.8 | 12.74 ± 3 | 1.4856 ± 0.0021 | 1.4842 ± 0.0021 | 1.4827 ± 0.0022 | 1.481 ± 0.0022 | 1.4792 ± 0.0022 | 1.4772 ± 0.0022 | 1.475 ± 0.002 | 1.4727 ± 0.0023 | 1.4702 ± 0.0023 | NCCNCCO [N-(2-aminoethyl)ethanolamine] |

— the NIST ThermoML archive (doi:10.1021/acs.jced.9b00171)
